According to US10392347B2, “2,4-dihydroxy-nicotinamides as APJ agonists” (BRISTOL-MYERS SQUIBB COMPANY, priority 2015, dated 2019):
Like-named read-outs stand apart in the source and are kept apart here.

Biological target: T1, human APJ receptor (Homo sapiens, UniProt P35414)
T1 construct: expressed in transfected cells
T1 sequence (P35414 1-380): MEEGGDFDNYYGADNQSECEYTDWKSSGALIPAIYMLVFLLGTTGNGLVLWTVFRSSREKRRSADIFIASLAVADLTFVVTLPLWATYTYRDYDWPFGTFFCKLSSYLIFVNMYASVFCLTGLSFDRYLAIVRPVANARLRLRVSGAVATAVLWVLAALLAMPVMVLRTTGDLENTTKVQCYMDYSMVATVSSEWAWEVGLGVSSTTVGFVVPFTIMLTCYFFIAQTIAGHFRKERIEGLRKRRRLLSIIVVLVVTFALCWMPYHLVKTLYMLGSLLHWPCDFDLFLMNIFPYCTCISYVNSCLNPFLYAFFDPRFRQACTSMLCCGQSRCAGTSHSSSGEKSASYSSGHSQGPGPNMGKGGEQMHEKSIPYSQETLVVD
Test: Intracellular cAMP accumulation assay (APJ hcAMP, HTRF)
Type: cell-based
Details: Table 1, HEK293 cells stably expressing human APJ, forskolin-stimulated cAMP
Procedure: Intracellular cAMP Accumulation Assay
HEK293 cells stably expressing human APJ receptor were used to assess the activity of compounds. Cultured cells were detached and resuspended in the cAMP Homogeneous Time-Resolved Fluorescence (HTRF) assay buffer (Cisbio cat; #62AM4PEJ). […] Serial dilutions of a compound together with assay buffer containing […] and 2 μM forskolin were added to each well containing 5,000 cells and incubated for 30 minutes at room temperature. Subsequently, cAMP D2 reagent was added in the lysis buffer followed by the EuK antibody (Cisbio; cat #62AM4PEJ) and incubated for 60 min. The fluorescence emission ratio was measured using fluorometer. The intracellular cAMP concentrations (compound-stimulated inhibition of forskolin-mediated cAMP production) were calculated by extrapolation from a standard curve using known cAMP concentrations. The EC50 values were obtained by fitting the data to a sigmoidal concentration-response curve with variable slope.
The EC50 value of each compound is presented at the end of the example description.
The biological activity of the exemplified compounds of this invention determined by the assay described above is shown at the end of each example.

Row | SMILES | EC50 (read-out: APJ cAMP EC50) | EC50 (APJ cAMP EC50 (nM))
1 | CCCCc1[nH]c(=O)c(C(=O)N(C)CCc2ccc(Cl)cc2)c(O)c1-c1c(OC)cccc1OC [Example 27, 6-butyl-N-[2-(4-chlorophenyl)ethyl]-5-(2,6-dimethoxyphenyl)-2,4-dihydroxy-N-methylpyridine-3-carboxamide] | – | 10 to 100 nM
2 | CCCCc1[nH]c(=O)c(C(=O)N2CC[C@H](c3ccccc3)C2)c(O)c1-c1c(OC)cccc1OC [Example 28, 6-butyl-5-(2,6-dimethoxyphenyl)-3-[(3R)-3-phenylpyrrolidine-1-carbonyl]pyridine-2,4-diol] | – | 0.01 to 10 nM
3 | CCCCc1[nH]c(=O)c(C(=O)N2CC[C@@H](c3ccccc3)C2)c(O)c1-c1c(OC)cccc1OC [Example 29, 6-butyl-5-(2,6-dimethoxyphenyl)-3-[(3S)-3-phenylpyrrolidine-1-carbonyl]pyridine-2,4-diol] | – | 0.01 to 10 nM
4 | CCCCc1[nH]c(=O)c(C(=O)N(CCC)Cc2ccccc2)c(O)c1-c1c(OC)cccc1OC [Example 33, N-benzyl-6-butyl-5-(2,6-dimethoxyphenyl)-2,4-dihydroxy-N-propylpyridine-3-carboxamide] | – | 100 to 300 nM
5 | CCCCc1nc(O)c(C(=O)N2CCC(O)(c3ccc(Cl)cc3)CC2)c(O)c1-c1c(OC)cccc1OC [Example 47, 6-butyl-3-[4-(4-chlorophenyl)-4-hydroxypiperidine-1-carbonyl]-5-(2,6-dimethoxyphenyl)pyridine-2,4-diol] | 10 to 100 nM | –
6 | CCCCc1nc(O)c(C(=O)N2CCC(c3nc4ccccc4s3)CC2)c(O)c1-c1c(OC)cccc1OC [Example 48, 3-[4-(1,3-benzothiazol-2-yl)piperidine-1-carbonyl]-6-butyl-5-(2,6-dimethoxyphenyl)pyridine-2,4-diol] | 10 to 100 nM | –
7 | CCCCc1nc(O)c(C(=O)N2CCC3(CC2)OC(=O)Nc2ccccc23)c(O)c1-c1c(OC)cccc1OC [Example 50, 1′-[6-butyl-5-(2,6-dimethoxyphenyl)-2,4-dihydroxypyridine-3-carbonyl]-1,2-dihydrospiro[3,1-benzoxazine-4,4′-piperidine]-2-one] | 10 to 100 nM | –
8 | CCCCc1nc(O)c(C(=O)N2CCN(c3nc4ccccc4o3)CC2)c(O)c1-c1c(OC)cccc1OC [Example 51, 3-[4-(1,3-benzoxazol-2-yl)piperazine-1-carbonyl]-6-butyl-5-(2,6-dimethoxyphenyl)pyridine-2,4-diol] | 10 to 100 nM | –
9 | CCCCc1nc(O)c(C(=O)N2CCCN(c3nnnn3-c3ccccc3)CC2)c(O)c1-c1c(OC)cccc1OC [Example 53, 6-butyl-5-(2,6-dimethoxyphenyl)-3-[4-(1-phenyl-1H-1,2,3,4-tetrazol-5-yl)-1,4-diazepane-1-carbonyl]pyridine-2,4-diol] | 10 to 100 nM | –
10 | CCCCc1nc(O)c(C(=O)N2CCN(c3nc4ccccc4s3)CC2)c(O)c1-c1c(OC)cccc1OC [Example 54, 3-[4-(1,3-benzothiazol-2-yl)piperazine-1-carbonyl]-6-butyl-5-(2,6-dimethoxyphenyl)pyridine-2,4-diol] | 10 to 100 nM | –
11 | CCCCc1nc(O)c(C(=O)N2CCC(c3c[nH]cn3)CC2)c(O)c1-c1c(OC)cccc1OC [Example 55, 6-butyl-5-(2,6-dimethoxyphenyl)-3-[4-(1H-imidazol-4-yl)piperidine-1-carbonyl]pyridine-2,4-diol] | 10 to 100 nM | –

Second part, the compound after the results:

Row | EC50 (read-out: APJ cAMP EC50) | EC50 (APJ cAMP EC50 (nM)) | SMILES
12 | 10 to 100 nM | – | CCOCc1nc(O)c(C(=O)N2CC[C@@H](c3ccccc3)C2)c(O)c1-c1c(OC)cccc1OC [Example 25, 5-(2,6-dimethoxyphenyl)-6-(ethoxymethyl)-3-[(3S)-3-phenylpyrrolidine-1-carbonyl]pyridine-2,4-diol]
13 | 10 to 100 nM | – | CCOCc1nc(O)c(C(=O)N2CC[C@H](c3ccccc3)C2)c(O)c1-c1c(OC)cccc1OC [Example 26, 5-(2,6-dimethoxyphenyl)-6-(ethoxymethyl)-3-[(3R)-3-phenylpyrrolidine-1-carbonyl]pyridine-2,4-diol]
14 | 10 to 100 nM | – | CCCCc1nc(O)c(C(=O)N2CCN(c3ccccc3)CC2)c(O)c1-c1c(OC)cccc1OC [Example 30, 6-butyl-5-(2,6-dimethoxyphenyl)-3-(4-phenylpiperazine-1-carbonyl)pyridine-2,4-diol]
15 | 0.01 to 10 nM | – | CCCCc1nc(O)c(C(=O)N2CCN(Cc3ccc(Cl)cc3)CC2)c(O)c1-c1c(OC)cccc1OC [Example 31, 6-butyl-3-{4-[(4-chlorophenyl)methyl]piperazine-1-carbonyl}-5-(2,6-dimethoxyphenyl)pyridine-2,4-diol]
16 | 10 to 100 nM | – | CCCCc1nc(O)c(C(=O)N2CCC(c3nc4ccccc4o3)CC2)c(O)c1-c1c(OC)cccc1OC [Example 32, 3-[4-(1,3-benzoxazol-2-yl)piperidine-1-carbonyl]-6-butyl-5-(2,6-dimethoxyphenyl)pyridine-2,4-diol]
17 | 0.01 to 10 nM | – | CCCCc1nc(O)c(C(=O)N2CC(c3cccc(Cl)c3)C2)c(O)c1-c1c(OC)cccc1OC [Example 34, 6-butyl-3-[3-(3-chlorophenyl)azetidine-1-carbonyl]-5-(2,6-dimethoxyphenyl)pyridine-2,4-diol]
18 | 0.01 to 10 nM | – | CCCCc1nc(O)c(C(=O)N2CCN(C(=O)c3ccccc3)CC2)c(O)c1-c1c(OC)cccc1OC [Example 41, 3-(4-benzoylpiperazine-1-carbonyl)-6-butyl-5-(2,6-dimethoxyphenyl)pyridine-2,4-diol]
19 | 0.01 to 10 nM | – | CCCCc1nc(O)c(C(=O)N2CCN(C(=O)c3cccc(F)c3)CC2)c(O)c1-c1c(OC)cccc1OC [Example 42, 6-butyl-5-(2,6-dimethoxyphenyl)-3-[4-(3-fluorobenzoyl)piperazine-1-carbonyl]pyridine-2,4-diol]
20 | 0.01 to 10 nM | – | CCCCc1nc(O)c(C(=O)N2CCN(Cc3ccc(F)cc3)CC2)c(O)c1-c1c(OC)cccc1OC [Example 43, 6-butyl-5-(2,6-dimethoxyphenyl)-3-{4-[(4-fluorophenyl)methyl]piperazine-1-carbonyl}pyridine-2.4-diol]
21 | 0.01 to 10 nM | – | CCCCc1nc(O)c(C(=O)N2CCN(Cc3ccccc3F)CC2)c(O)c1-c1c(OC)cccc1OC [Example 44, 6-butyl-5-(2,6-dimethoxyphenyl)-3-{4-[(2-fluorophenyl)methyl]piperiazine-1-carbonyl}pyridine-2.4-diol]
22 | 0.01 to 10 nM | – | CCCCc1nc(O)c(C(=O)N2CCN(Cc3cccc(F)c3)CC2)c(O)c1-c1c(OC)cccc1OC [Example 45, 6-butyl-5-(2,6-dimethoxyphenyl)-3-{4-[(3-fluorophenyl)methyl]piperazine-1-carbonyl}pyridine-2,4-diol]
23 | 10 to 100 nM | – | CCCCc1nc(O)c(C(=O)N2CCC(O)(c3ccccc3)CC2)c(O)c1-c1c(OC)cccc1OC [Example 46, 6-butyl-5-(2,6-dimethoxyphenyl)-3-(4-hydroxy-4-phenylpiperidine-1-carbonyl)pyridine-2,4-diol]
24 | 0.01 to 10 nM | – | CCCCc1nc(O)c(C(=O)N2CCN(c3nsc4ccccc34)CC2)c(O)c1-c1c(OC)cccc1OC [Example 49, 3-[4-(1,2-benzothiazol-3-yl)piperazine-1-carbonyl]-6-butyl-5-(2,6-dimethoxyphenyl)pyridine-2,4-diol]
25 | 0.01 to 10 nM | – | CCCCc1nc(O)c(C(=O)N2CCN(c3nnnn3-c3ccccc3)CC2)c(O)c1-c1c(OC)cccc1OC [Example 52, 6-butyl-5-(2,6-dimethoxyphenyl)-3-[4-(1-phenyl-1H-1,2,3,4-tetrazol-5-yl)piperazine-1-carbonyl]pyridine-2,4-diol]
